SMILES strings stand for the structures. Structures can show the parent of a compound that is named as a salt.

For one experiment, the system named is HBV. Put plainly: Determination of HBV DNA from the supernatants of HepAD38 cells (anti-HBV activity). The format is cell-based, hepatitis B virus. The note with it: Hepatitis B virus, 144 h; HBV DNA in HepAD38 supernatant at day 6; read-out: Cell Activity (EC50). The protocol:
Determination of HBV DNA from the Supernatants of HepAD38 Cells
The anti-HBV activity was analysed in the stable transfected cell line HepAD38, which has been described to secrete high levels of HBV virion particles (Ladner et al., 1997). In brief, HepAD38 cells were cultured at 37° C. at 5% CO2 and 95% humidity in 200 μl maintenance medium, which was Dulbecco's modified Eagle's medium/Nutrient Mixture F-12 (Gibco, Karlsruhe), 10% fetal bovine serum (PAN Biotech Aidenbach) supplemented with 50 μg/ml penicillin/streptomycin (Gibco, Karlsruhe), 2 mM L-glutamine (PAN Biotech, Aidenbach), 400 μg/ml G418 (AppliChem, Darmstadt) and 0.3 μg/ml tetracycline. Cells were subcultured once a week in a 1:5 ratio, but were usually not passaged more than ten times. For the assay 60,000 cells were seeded in maintenance medium without any tetracycline into each well of a 96-well plate and treated with serial half-log dilutions of test compound. To minimize edge effects the outer 36 wells of the plate were not used but were filled with assay medium. On each assay plate six wells for the virus control (untreated HepAD38 cells) and six wells for the cell control (HepAD38 cells treated with 0.3 μg/ml tetracycline) were allocated, respectively. In addition, one plate set with reference inhibitors like BAY 41-4109, entecavir, and lamivudine instead of screening compounds were prepared in each experiment. In general, experiments were performed thrice in triplicates. At day 6 HBV DNA from 100 μl filtrated cell culture supernatant (AcroPrep Advance 96 Filter Plate, […] Supor membran, PALL GmbH, Dreieich) was automatically purified on the MagNa Pure LC instrument using the MagNA Pure 96 DNA and Viral NA Small Volume Kit (Roche Diagnostics, Mannheim) according to the instructions of the manufacturer. EC50 values were calculated from relative copy numbers of HBV DNA. In brief, 5 μl of the 100 μl eluate containing HBV DNA were subjected to PCR LC480 Probes Master Kit (Roche) together with 1 μM antisense primer […], 0.5 μM sense primer […], 0.3 μM hybprobes […]-FL and LC640-[…]-PH (TIBMolBiol, Berlin) to a final volume of 12.5 μl. The PCR was performed on the Light Cycler 480 real time system (Roche Diagnostics, Mannheim) using the following protocol: Pre-incubation for 1 min at 95° C., amplification: 40 cycles×(10 sec at 95° C., 50 sec at 60° C., 1 sec at 70° C.), cooling for 10 sec at 40° C. Viral load was quantitated against known standards using HBV plasmid DNA of pCH-9/3091 (Nassal et al., 1990, Cell 63: 1357-1363) and the LightCycler 480 SW 1.5 software (Roche Diagnostics, Mannheim) and EC50 values were calculated using non-linear regression with GraphPad Prism 6 (GraphPad Software Inc., La Jolla, USA).
A word on the EC50: it is the concentration needed to bring the measured effect to its halfway point. `O=C(c1cc2ccccc2[nH]1)N1CCc2nc(NC(=O)C3(O)CC3)sc2C1` [Example 346, 1-hydroxy-N-[5-(1H-indole-2-carbonyl)-4H,5H,6H,7H-[1,3]thiazolo[5,4-c]pyridin-2-yl]cyclopropane-1-carboxamide]: the concentration giving a half-maximal response (EC50) is less than 1000 nM.
For the molecule `CCc1cc(F)cc2[nH]c(C(=O)N3CCc4nc(NC(=O)C5(C)CC5)sc4C3)cc12` [Example 306, N-[5-(4-ethyl-6-fluoro-1H-indole-2-carbonyl)-4H,5H,6H,7H-[1,3]thiazolo[5,4-c]pyridin-2-yl]-1-methylcyclopropane-1-carboxamide], the EC50 is less than 1000 nM.
For the molecule `O=C(c1cc2ccccc2[nH]1)N1CCc2nc(Cl)sc2C1` [Example 207, 2-{2-chloro-4H,5H,6H,7H-[1,3]thiazolo[5,4-c]pyridine-5-carbonyl}-1H-indole], the concentration giving a half-maximal response (EC50) is less than 100000 nM.
In the case of `CCc1c(F)ccc2[nH]c(C(=O)N3CCc4nc(NCC5CCOC5)sc4C3)cc12` (stereo not drawn) [Example 256, 5-(4-ethyl-5-fluoro-1H-indole-2-carbonyl)-N-[(oxolan-3-yl)methyl]-4H,5H,6H,7H-[1,3]thiazolo[5,4-c]pyridin-2-amine], the EC50 is less than 100000 nM.
For `O=C(c1cc2cc(F)c(F)cc2[nH]1)N1CCc2nc(NCC3(O)CCC3)sc2C1` [Example 369, 1-({[5-(5,6-difluoro-1H-indole-2-carbonyl)-4H,5H,6H,7H-[1,3]thiazolo[5,4-c]pyridin-2-yl]amino}methyl)cyclobutan-1-ol], the concentration giving a half-maximal response (EC50) is less than 1000 nM.
As for `O=C(CC1CCOC1)Nc1nc2c(s1)CN(C(=O)c1cc3ccccc3[nH]1)CC2` (stereo not drawn) [Example 351, N-[5-(1H-indole-2-carbonyl)-4H,5H,6H,7H-[1,3]thiazolo[5,4-c]pyridin-2-yl]-2-(oxolan-3-yl)acetamide], the concentration for a half-maximal effect (EC50) is less than 1000 nM.
On the same count and under the same terms, the same measure for `CC1(C(=O)Nc2nc3c(s2)CN(C(=O)c2cc4c(Cl)cccc4[nH]2)CC3)CC1` [Example 308, N-[5-(4-chloro-1H-indole-2-carbonyl)-4H,5H,6H,7H-[1,3]thiazolo[5,4-c]pyridin-2-yl]-1-methylcyclopropane-1-carboxamide]: less than 1000 nM; for `CC1(C(=O)Nc2nc3c(s2)CN(C(=O)c2cc4c(Cl)cc(F)cc4[nH]2)CC3)CC1` [Example 305, N-[5-(4-chloro-6-fluoro-1H-indole-2-carbonyl)-4H,5H,6H,7H-[1,3]thiazolo[5,4-c]pyridin-2-yl]-1-methylcyclopropane-1-carboxamide]: less than 1000 nM; for `O=C(c1cc2c(C(F)(F)F)cccc2[nH]1)N1CCc2nc(NCC3(O)CCC3)sc2C1` [Example 374, 1-[({5-[4-(trifluoromethyl)-1H-indole-2-carbonyl]-4H,5H,6H,7H-[1,3]thiazolo[5,4-c]pyridin-2-yl}amino)methyl]cyclobutan-1-ol]: less than 1000 nM.
Same read-out and setting: the same measure for `O=C(c1cc2ccccc2[nH]1)N1CCc2nc(NCCn3ccnc3)sc2C1` [Example 349, N-[2-(1H-imidazol-1-yl)ethyl]-5-(1H-indole-2-carbonyl)-4H,5H,6H,7H-[1,3]thiazolo[5,4-c]pyridin-2-amine]: less than 1000 nM.
On the same count and under the same terms, the same measure for `CC(=O)N1CC(C(=O)Nc2nc3c(s2)CN(C(=O)c2cc4ccccc4[nH]2)CC3)C1` [Example 382, 1-acetyl-N-[5-(1H-indole-2-carbonyl)-4H,5H,6H,7H-[1,3]thiazolo[5,4-c]pyridin-2-yl]azetidine-3-carboxamide]: less than 1000 nM; for `O=C(c1cc2ccccc2[nH]1)N1CCc2nc(N[C@H]3CCC[C@@H](O)C3)sc2C1` [Example 350, (1R,3S)-3-{[5-(1H-indole-2-carbonyl)-4H,5H,6H,7H-[1,3]thiazolo[5,4-c]pyridin-2-yl]amino}cyclohexan-1-ol]: less than 1000 nM.
For the molecule `CN1CC(C(=O)Nc2nc3c(s2)CN(C(=O)c2cc4ccccc4[nH]2)CC3)C1` [Example 383, N-[5-(1H-indole-2-carbonyl)-4H,5H,6H,7H-[1,3]thiazolo[5,4-c]pyridin-2-yl]-1-methylazetidine-3-carboxamide], the EC50 was 1000 to 10000 nM.
The same measure, in the same setting: the same measure for `CCOC(=O)C1(CNc2nc3c(s2)CN(C(=O)c2cc4ccccc4[nH]2)CC3)CC1` [Example 317, Ethyl 1-({[5-(1H-indole-2-carbonyl)-4H,5H,6H,7H-[1,3]thiazolo[5,4-c]pyridin-2-yl]amino}methyl)cyclopropane-1-carboxylate]: 1000 to 10000 nM; for `Cc1c(F)ccc2[nH]c(C(=O)N3CCc4nc(N)sc4C3)cc12` [Example 437, 5-(5-fluoro-4-methyl-1H-indole-2-carbonyl)-4H,5H,6H,7H-[1,3]thiazolo[5,4-c]pyridin-2-amine]: less than 1000 nM.
The same measure, in the same setting: the same measure for `O=C(c1cc2ccccc2[nH]1)N1CCc2nc(NC34CC(C3)C4)sc2C1` [Example 431, N-{bicyclo[1.1.1]pentan-1-yl}-5-(1H-indole-2-carbonyl)-4H,5H,6H,7H-[1,3]thiazolo[5,4-c]pyridin-2-amine]: less than 1000 nM; for `CC(O)c1ccc(F)c2[nH]c(C(=O)N3CCc4nc(NCC5CCOC5)sc4C3)cc12` (stereo not drawn) [Example 257, 1-[7-fluoro-2-(2-{[(oxolan-3-yl)methyl]amino}-4H,5H,6H,7H-[1,3]thiazolo[5,4-c]pyridine-5-carbonyl)-1H-indol-4-yl]ethan-1-ol]: less than 100000 nM; for `O=C(c1cc2ccccc2[nH]1)N1CCc2nc(NC(=O)C3(F)CC3)sc2C1` [Example 337, 1-fluoro-N-[5-(1H-indole-2-carbonyl)-4H,5H,6H,7H-[1,3]thiazolo[5,4-c]pyridin-2-yl]cyclopropane-1-carboxamide]: less than 1000 nM.
On the same count and under the same terms, the same measure for `O=C(c1cc2ccccc2[nH]1)N1CCc2nc(N[C@@H]3CCCC[C@@H]3O)sc2C1` [Example 348, (1S,2R)-2-{[5-(1H-indole-2-carbonyl)-4H,5H,6H,7H-[1,3]thiazolo[5,4-c]pyridin-2-yl]amino}cyclohexan-1-ol]: less than 1000 nM.
Consider `N#CC12CC(Nc3nc4c(s3)CN(C(=O)c3cc5ccccc5[nH]3)CC4)(C1)C2` [Example 435, 3-{[5-(1H-indole-2-carbonyl)-4H,5H,6H,7H-[1,3]thiazolo[5,4-c]pyridin-2-yl]amino}bicyclo[1.1.1]pentane-1-carbonitrile], for which the 50% effective concentration (EC50) was less than 1000 nM.
With `CC1(C(=O)Nc2nc3c(s2)CN(C(=O)c2cc4cc(F)c(Cl)cc4[nH]2)CC3)CC1` [Example 304, N-[5-(6-chloro-5-fluoro-1H-indole-2-carbonyl)-4H,5H,6H,7H-[1,3]thiazolo[5,4-c]pyridin-2-yl]-1-methylcyclopropane-1-carboxamide], the 50% effective concentration (EC50) was less than 1000 nM.
`CC(C)c1cccc2[nH]c(C(=O)N3CCc4nc(NCC5(O)CCC5)sc4C3)cc12` [Example 368, 1-[({5-[4-(propan-2-yl)-1H-indole-2-carbonyl]-4H,5H,6H,7H-[1,3]thiazolo[5,4-c]pyridin-2-yl}amino)methyl]cyclobutan-1-ol]: the concentration for a half-maximal effect (EC50) was less than 1000 nM.
Same read-out and setting: the same measure for `O=C(Nc1nc2c(s1)CN(C(=O)c1cc3c(F)c(F)ccc3[nH]1)CC2)C1CCOCC1` [Example 398, N-[5-(4,5-difluoro-1H-indole-2-carbonyl)-4H,5H,6H,7H-[1,3]thiazolo[5,4-c]pyridin-2-yl]oxane-4-carboxamide]: less than 1000 nM.

The experiment is the same for the next values; noted with them: Hepatitis B virus, HePAD38, 144 h, read-out: Cell Activity (EC50).
Turning to `O=C(Nc1nc2c(s1)CN(C(=O)c1cc3ccccc3[nH]1)CC2)C1CNC1` [Example 386, N-[5-(1H-indole-2-carbonyl)-4H,5H,6H,7H-[1,3]thiazolo[5,4-c]pyridin-2-yl]azetidine-3-carboxamide hydrochloride], the concentration for a half-maximal effect (EC50) is 1000 to 10000 nM.

The values above are taken from patent US11267825B2 (AICURIS GMBH & CO. KG, priority 2017, dated 2022).
